# Measurements as given in patent US11325938B2, “CD73 inhibitors” (ORIC Pharmaceuticals, Inc., priority 2018, dated 2022).
# pIC50: −log10 of the molar value.
# Molecular target: CD73 (Homo sapiens (Human), UniProt P21589)
# Experiment: Biochemical assay: inhibition of CD73 activity (AMP hydrolysis, Malachite Green readout)
# Details: CD73 0.3208 nM, AMP 15 μM, 25 mM Tris-HCl pH 7.4, RT, absorbance 620 nm
# How it was run: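 Human CD73 (320 pM final) preincubated 15 min at RT with compounds (10-point ½-log titration from 100 μM, duplicates) in 25 mM Tris-HCl pH 7.4, 5 mM MgCl2, 0.01% Brij-35, 0.01% BSA. 15 μM AMP added, 10 min at RT; released phosphate read by Malachite Green absorbance; IC50 determined.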
# CD73, sequence (P21589 27-574): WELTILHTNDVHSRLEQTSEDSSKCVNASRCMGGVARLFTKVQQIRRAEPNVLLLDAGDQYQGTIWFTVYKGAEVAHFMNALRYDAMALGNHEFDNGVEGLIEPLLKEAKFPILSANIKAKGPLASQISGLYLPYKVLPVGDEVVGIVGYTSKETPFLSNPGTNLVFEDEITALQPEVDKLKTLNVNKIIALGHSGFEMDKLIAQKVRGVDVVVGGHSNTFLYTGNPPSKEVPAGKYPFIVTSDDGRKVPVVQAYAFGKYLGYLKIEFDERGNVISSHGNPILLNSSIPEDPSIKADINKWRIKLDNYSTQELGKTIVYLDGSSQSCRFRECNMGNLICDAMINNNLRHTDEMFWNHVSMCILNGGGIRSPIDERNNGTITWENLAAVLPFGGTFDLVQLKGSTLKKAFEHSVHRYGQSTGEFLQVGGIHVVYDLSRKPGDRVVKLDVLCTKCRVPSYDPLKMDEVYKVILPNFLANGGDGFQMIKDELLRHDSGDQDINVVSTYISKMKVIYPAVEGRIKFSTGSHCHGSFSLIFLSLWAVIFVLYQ
row,Compound,pIC50
1,"O=P(O)(O)[C@@](CO)(Cc1nn[nH]n1)OC[C@H]1O[C@@H](n2ncc3c(NC4CCC4)nc(Cl)nc32)[C@H](O)[C@@H]1O (racemic) [Example 213, rac-((R)-2-(((2R,3S,4R,5R)-5-(6-chloro-4-(cyclobutylamino)-1H-pyrazolo[3,4-d]pyrimidin-1-yl)-3,4-dihydroxytetrahydrofuran-2-yl)methoxy)-1-hydroxy-3-(2H-tetrazol-5-yl)propan-2-yl)phosphonic acid]",≥ 7.00
2,"CC(C)(O)COc1nc(NC2CCCC2)c2cnn([C@@H]3O[C@H](COC(CO)(CO)P(=O)(O)O)[C@@H](O)[C@H]3O)c2n1 (racemic) [Example 175, rac-(2-(((2R,3S,4R,5R)-5-(4-(cyclopentylamino)-6-(2-hydroxy-2-methylpropoxy)-1H-pyrazolo[3,4-d]pyrimidin-1-yl)-3,4-dihydroxytetrahydrofuran-2-yl)methoxy)-1,3-dihydroxypropan-2-yl)phosphonic acid]",≥ 7.00
3,"C[C@](CO)(OC[C@H]1O[C@@H](n2ncc3c(NC4CC5(CCC5)C4)nc(Cl)nc32)[C@H](O)[C@@H]1O)P(=O)(O)O [Example 123, ((S)-2-(((2R,3S,4R,5R)-5-(6-chloro-4-(spiro[3.3]heptan-2-ylamino)-1H-pyrazolo[3,4-d]pyrimidin-1-yl)-3,4-dihydroxytetrahydrofuran-2-yl)methoxy)-1-hydroxypropan-2-yl)phosphonic acid]",≥ 7.00
4,"COCC(OC[C@@H]1O[C@H](n2ncc3c(NC4CCCC4)nc(Cl)nc32)[C@@H](O)[C@H]1O)(C(=O)O)P(=O)(O)O (mixture of isomers) [Example 220, rac-(R)-2-(((2S,3R,4S,5S)-5-(6-chloro-4-(cyclopentylamino)-1H-pyrazolo[3,4-d]pyrimidin-1-yl)-3,4-dihydroxytetrahydrofuran-2-yl)methoxy)-3-methoxy-2-phosphonopropanoic acid]",6.00 to 7.00
5,"O=P(O)(O)C(CO)(CCO)OC[C@H]1O[C@@H](n2ncc3c(NC4CCCC4)nc(Cl)nc32)[C@H](O)[C@@H]1O (stereo partly drawn) [Example 36, (2-(((2R,3S,4R,5R)-5-(6-chloro-4-(cyclopentylamino)-1H-pyrazolo[3,4-d]pyrimidin-1-yl)-3,4-dihydroxytetrahydrofuran-2-yl)methoxy)-1,4-dihydroxybutan-2-yl)phosphonic acid]",≥ 7.00
6,"O=P(O)(O)[C@](CO)(Cc1nn[nH]n1)OC[C@H]1O[C@@H](n2ncc3c(NCC4CC4)nc(Cl)nc32)[C@H](O)[C@@H]1O (racemic) [Example 196, rac-((R)-2-(((2S,3R,4S,5S)-5-(6-chloro-4-((cyclopropylmethyl)amino)-1H-pyrazolo[3,4-d]pyrimidin-1-yl)-3,4-dihydroxytetrahydrofuran-2-yl)methoxy)-1-hydroxy-3-(2H-tetrazol-5-yl)propan-2-yl)phosphonic acid]",≥ 7.00
7,"C[C@@](CO)(OC[C@H]1O[C@@H](n2ncc3c(NC4CCCC4)cc(Cl)nc32)[C@H](O)[C@@H]1O)P(=O)(O)O (racemic) [Example 194, rac-((R)-2-(((2R,3S,4R,5R)-5-(6-chloro-4-(cyclopentylamino)-1H-pyrazolo[3,4-b]pyridin-1-yl)-3,4-dihydroxytetrahydrofuran-2-yl)methoxy)-1-hydroxypropan-2-yl)phosphonic acid]",≥ 7.00
8,"CC1(Nc2nc(Cl)nc3c2cnn3[C@@H]2O[C@H](CO[C@](C)(CO)P(=O)(O)O)[C@@H](O)[C@H]2O)CCCC1 [Example 106, ((S)-2-(((2R,3S,4R,5R)-5-(6-chloro-4-((1-methylcyclopentyl)amino)-1H-pyrazolo[3,4-d]pyrimidin-1-yl)-3,4-dihydroxytetrahydrofuran-2-yl)methoxy)-1-hydroxypropan-2-yl)phosphonic acid]",≥ 7.00
9,"O=P(O)(O)COC[C@H]1O[C@@H](n2nnc3c(NC4CCCC4)cc(Cl)nc32)[C@H](O)[C@@H]1O [Example 17, ((((2R,3S,4R,5R)-5-(5-Chloro-7-(cyclopentylamino)-3H-[1,2,3]triazolo[4,5-b]pyridin-3-yl)-3,4-dihydroxytetrahydrofuran-2-yl)methoxy)methyl)phosphonic acid]",6.00 to 7.00
10,"NC(=O)OC[C@@](CO)(OC[C@H]1O[C@@H](n2ncc3c(NC4CCCC4)nc(Cl)nc32)[C@H](O)[C@@H]1O)P(=O)(O)O (racemic) [Example 215, rac-((R)-1-(carbamoyloxy)-2-(((2S,3R,4S,5S)-5-(6-chloro-4-(cyclopentylamino)-1H-pyrazolo[3,4-d]pyrimidin-1-yl)-3,4-dihydroxytetrahydrofuran-2-yl)methoxy)-3-hydroxypropan-2-yl)phosphonic acid]",≥ 7.00
11,"C[C@@H](O)COc1nc(NC2CCCC2)c2cnn([C@@H]3O[C@H](CO[C@@](C)(CO)P(=O)(O)O)[C@@H](O)[C@H]3O)c2n1 (racemic) [Example 165, rac-((R)-2-(((2R,3S,4R,5R)-5-(4-(cyclopentylamino)-6-((R)-2-hydroxypropoxy)-1H-pyrazolo[3,4-d]pyrimidin-1-yl)-3,4-dihydroxytetrahydrofuran-2-yl)methoxy)-1-hydroxypropan-2-yl)phosphonic acid]",≥ 7.00
12,"COCC(C)(OC[C@H]1O[C@@H](n2ncc3c(NC4CCC4)nc(Cl)nc32)[C@H](O)[C@@H]1O)P(=O)(O)O (stereo partly drawn) [Example 159, (2-(((2R,3S,4R,5R)-5-(6-chloro-4-(cyclobutylamino)-1H-pyrazolo[3,4-d]pyrimidin-1-yl)-3,4-dihydroxytetrahydrofuran-2-yl)methoxy)-1-methoxypropan-2-yl)phosphonic acid]",≥ 7.00
13,"O=P(O)(O)C(CO)OC[C@H]1O[C@@H](n2nnc3c(NC4CCCC4)nc(Cl)nc32)[C@H](O)[C@@H]1O (stereo partly drawn) [Example 58, (1-(((2R,3S,4R,5R)-5-(5-Chloro-7-(cyclopentylamino)-3H-[1,2,3]triazolo[4,5-d]pyrimidin-3-yl)-3,4-dihydroxytetrahydrofuran-2-yl)methoxy)-2-hydroxyethyl)phosphonic acid]",≥ 7.00
14,"O=P(O)(O)C(CO)(COCC(F)(F)F)OC[C@H]1O[C@@H](n2ncc3c(NC4CCCC4)nc(Cl)nc32)[C@H](O)[C@@H]1O (stereo partly drawn) [Example 95, (2-(((2R,3S,4R,5R)-5-(6-chloro-4-(cyclopentylamino)-1H-pyrazolo[3,4-d]pyrimidin-1-yl)-3,4-dihydroxytetrahydrofuran-2-yl)methoxy)-1-hydroxy-3-(2,2,2-trifluoroethoxy)propan-2-yl)phosphonic acid]",≥ 7.00
15,"CC(CO)(OC[C@H]1O[C@@H](n2nnc3c(NC4CCCC4)nc(Cl)nc32)[C@H](O)[C@@H]1O)P(=O)(O)O (stereo partly drawn) [Example 67, (2-(((2R,3S,4R,5R)-5-(5-chloro-7-(cyclopentylamino)-3H-[1,2,3]triazolo[4,5-d]pyrimin-3-yl)-3,4-dihydroxytetrahydrofuran-2-yl)methoxy)-1-hydroxypropan-2-yl)phosphonic acid]",≥ 7.00
16,"COCC(C)(OC[C@@H]1C[C@@H](O)[C@H](n2ncc3c(NC4CCCC4)nc(Cl)nc32)O1)P(=O)(O)O (stereo partly drawn) [Example 70, (2-(((2S,4R,5R)-5-(6-chloro-4-(cyclopentylamino)-1H-pyrazolo[3,4-d]pyrimidin-1-yl)-4-hydroxytetrahydrofuran-2-yl)methoxy)-1-methoxypropan-2-yl)phosphonic acid]",6.00 to 7.00
17,"C[C@@](CO)(OC[C@H]1O[C@@H](n2ncc3c(N[C@@H]4CCc5cc(F)ccc54)nc(Cl)nc32)[C@H](O)[C@@H]1O)P(=O)(O)O [Example 122, ((R)-2-(((2R,3S,4R,5R)-5-(6-chloro-4-(((R)-5-fluoro-2,3-dihydro-1H-inden-1-yl)amino)-1H-pyrazolo[3,4-d]pyrimidin-1-yl)-3,4-dihydroxytetrahydrofuran-2-yl)methoxy)-1-hydroxypropan-2-yl)phosphonic acid]",≥ 7.00
18,"C[C@H](P(=O)(O)O)S(=O)(=O)C[C@H]1O[C@@H](n2ncc3c(NC4CCCC4)nc(Cl)nc32)[C@H](O)[C@@H]1O [Example 7, ((R)-1-((((2S,3S,4R,5R)-5-(6-Chloro-4-(cyclopentylamino)-1H-pyrazolo[3,4-d]pyrimidin-1-yl)-3,4-dihydroxytetrahydrofuran-2-yl)methyl)sulfonyl)ethyl)phosphonic acid]",≥ 7.00
19,"CC(CO)(OC[C@H]1O[C@@H](n2nnc3c(N[C@@H]4CCc5ccccc54)nc(Cl)nc32)[C@H](O)[C@@H]1O)P(=O)(O)O (stereo partly drawn) [Example 78, (2-(((2R,3S,4R,5R)-5-(5-chloro-7-(((R)-2,3-dihydro-1H-inden-1-yl)amino)-3H-[1,2,3]triazolo[4,5-d]pyrimidin-3-yl)-3,4-dihydroxytetrahydrofuran-2-yl)methoxy)-1-hydroxypropan-2-yl)phosphonic acid]",≥ 7.00
20,"CC(CO)(OC[C@H]1O[C@@H](n2ncc3c(NC4CCCC4)cc(Cl)nc32)[C@H](O)[C@@H]1O)P(=O)(O)O (stereo partly drawn) [Example 152, (2-(((2R,3S,4R,5R)-5-(6-chloro-4-(cyclopentylamino)-1H-pyrazolo[3,4-b]pyridin-1-yl)-3,4-dihydroxytetrahydrofuran-2-yl)methoxy)-1-hydroxypropan-2-yl)phosphonic acid]",≥ 7.00
21,"O=P(O)(O)COC[C@H]1O[C@@H](n2nnc3c(NC4CCCC4)nc(Cl)cc32)[C@H](O)[C@@H]1O [Example 20, ((((2R,3S,4R,5R)-5-(6-chloro-4-(cyclopentylamino)-1H-[1,2,3]triazolo[4,5-c]pyridin-1-yl)-3,4-dihydroxytetrahydrofuran-2-yl)methoxy)methyl)phosphonic acid]",6.00 to 7.00
22,"CCS(=O)(=O)C[C@](C)(OC[C@H]1O[C@@H](n2ncc3c(NC4CCCC4)nc(Cl)nc32)[C@H](O)[C@@H]1O)P(=O)(O)O [Example 137, ((R)-2-(((2R,3S,4R,5R)-5-(6-chloro-4-(cyclopentylamino)-1H-pyrazolo[3,4-d]pyrimidin-1-yl)-3,4-dihydroxytetrahydrofuran-2-yl)methoxy)-1-(ethylsulfonyl)propan-2-yl)phosphonic acid]",≥ 7.00
